One assay has as its system C2C12 cells. As to the kind of experiment: Alkaline Phosphatase (ALP) functional activity assay in C2C12 cells. The note with it: normalized to DMSO treatment; for activation at 0.5 µM: Mus musculus, C2C12, 144 h. Format: cell-based, Mouse. How it is done: Alkaline Phosphatase (ALP) Functional Activity Assay: C2C12 cells were plated into 12-well plates with 7,000 cells/well in 1 mL growth media. […] 1, 2, 3, or 4 in 0.1% DMSO was added (500 nM). Half the media was exchanged with fresh media containing compound every 48 hrs. After 6 days, media was removed, ALP Lysis Buffer (10 mM Tris-HCl pH 8.0, 1 mM MgCl2, and 1% Triton X100) added, and cell lysate obtained (10 min incubation at RT) by centrifugation (5 min at 3500× g at 4° C.). Para-nitrophenol phosphate (pNPP) (2 mg/mL) was incubated with 50 μl cell lysate (10 mins, 37° C.). After addition of […] 0.02 N NaOH, absorbance OD405 was measured. Protein concentration was determined by Bradford protein assay. Results of ALP activity were plotted as nM pNP hydrolyzed/mg total protein. After normalizing control samples (i.e., DMSO-treated samples) to one-fold, the fold-changes were plotted to indicate the relative ALP activity. […] This protocol was applied to hMSC and E15 cells as well.

Another assay concerns hMSCs. As to the kind of experiment: qPCR of target gene mRNA expression in hMSCs. The note with it: hMSCs, comparison with compound 3 and calcium phosphate ceramic. Format: cell-based, human. The protocol: qPCR detection of osteogenic markers: Cells were cultured with compound in the presence or absence of matrix as described above, but using 96-well plate format. Total RNA was extracted from cells (as above) using Trizol. cDNA was made using 750 ng of total RNA with Bio-Rad iscript kit and was diluted 20-fold before being used for qPCR. qPCR was conducted under the following conditions: 95° C., 2 min; 95° C., 10 s and 60° C., 45 s for 40 cycles; 60° C. for 71 cycles for melt curve. qPCR results were analyzed by the ΔΔCt method. 18s rRNA was used as an internal standard. This protocol was applied to hMSC and E15 cells.
Runx2 and BMP-2 are osteogenic markers; Axin2, Wnt3a, and Sox 9 are Wnt-inducible gene markers.
The assay for mRNA expression followed the same procedure with hMSCs as described for C2C12 cells (Example 7).
Background: Quantitative PCR measures a nucleic acid by following its amplification.

For the next assay, the system named is Wnt transcription. As to the kind of experiment: WNT transcriptional reporter assay (Super(8×)TOPflash luciferase, HEK293T cells). In kind it is cell-based. The settings on record: Wnt3A-expressing vector, 20 hrs, relative to cells treated with DMSO alone, read-out: Wnt transcription potency. An excerpt: Commercially available Super(8×)TOPflash vector driven by a (7×) TCF-firefly luciferase response element was transiently transfected into HEK293T cells, together with a TK-driven Renilla luciferase plasmid as an internal control to normalize the luminescence signal and a Wnt3A-expressing vector as the source of pathway activation. HEK293T cells were transfected with plasmids in DMEM plus 10% fetal bovine serum (FBS) for 8 hr, replated to 96-well plates in DMEM plus 10% FBS followed by treatment with compounds (1.6 nM to 5 M) (DMSO final concentration is 0.5%) for 20 hrs. Firefly and Renilla luciferase activities were measured and normalized by the Renilla luciferase values.
A general note: Reporter assays use an easily measured gene product as a stand-in for the process of interest.

The mark [1] stands for this setting: compounds of Formula VI, absence of matrix.
Where [2] appears, read: compounds of Formula VI, presence of calcium phosphate matrix.
The mark [3] stands for this setting: compounds of Formula II or IV, absence of matrix.
[4] abbreviates: compounds of Formula II or IV, presence of calcium phosphate matrix.

Each structure is given as a SMILES string. pEC50: −log10 of the molar value. Like-named read-outs stand apart in the source and are kept apart here.

Turning to `COc1cc(C=CC(=O)C=C(O)C=Cc2ccc(O)c(OC)c2)ccc1O` [Compound 38, 1,7-Bis(4-hydroxy-3-methoxyphenyl)-5-hydroxy-hepta-1,4,6-trien-3-one], the activation at 0.5 µM is 5 to 50% in the assay with C2C12 cells (setting [1]) and above 100% in the assay on C2C12 cells (setting [2]). Moreover, the “robust mRNA up-regulation of VDR or ALP” value in the assay with hMSCs was “not observed”.

In the case of `Cc1nc2c(-c3ccccc3)cnn2c(N2CCN(C)CC2)c1C` [Compound 31, 3-phenyl-5,6-dimethyl-7-(N-methyl-N-piperazinyl)-pyrazolo[1,5-a]pyrimidine], the pEC50 with Wnt transcription was 7.40 to 7.82. Moreover, the “ALP activity −matrix” value in the assay with C2C12 cells (setting [3]) was “+ (5-50%)”. Moreover, in the assay with C2C12 cells (setting [4]), the “ALP activity +matrix” value is recorded as “+ (5-50%)”.

On to `COc1ccc(N[C@H]2C[C@H](C)Nc3ccc(OC)cc32)cc1` (relative stereo) [Compound 12, trans-2-methyl-6-methoxy-N-(p-methoxyphenyl)-1,2,3,4-tetrahydroquinolin-4-amine], for which the activation at 0.5 µM in the assay with C2C12 cells (setting [3]) is above 100%; in the assay with C2C12 cells (setting [4]), 5 to 50%.

Consider `CC(=O)N1c2ccc(C)cc2[C@@H](N(C(C)=O)c2ccc(C)cc2)C[C@@H]1C` (relative stereo) [Compound 27, trans-1-acetyl-2,6-dimethyl-N-(p-methylphenyl)-N-acetyl-1,2,3,4-tetrahydroquinolin-4-amine], for which the activation at 0.5 µM in the assay on C2C12 cells (setting [3]) and in the assay with C2C12 cells (setting [4]) was 5 to 50% each time.

Regarding `COc1ccc(F)cc1C=CC(O)=C1CCCC(=Cc2cc(F)ccc2OC)C1=O` [Compound 56, 2-(5-Fluoro-2-methoxybenzylidene)-6-(3-(5-fluoro-2-methoxyphenyl)-1-hydroxyallylidene) cyclohexanone], the activation at 0.5 µM was below 5% in the assay with C2C12 cells (setting [1]) and above 100% in the assay on C2C12 cells (setting [2]).

As to `Cc1ccc(N[C@H]2C[C@H](C)N(C(=O)C(C)C)c3ccc(C)cc32)cc1` (relative stereo) [Compound 15, trans-1-(2-propylcarbonyl)-2,6-dimethyl-4-(4-methylphenylamino)-1,2,3,4-tetrahydroquinoline], the activation at 0.5 µM with C2C12 cells (setting [3]) was below 5%; in the assay with C2C12 cells (setting [4]) it was 50 to 100%.

Consider `CC(C)[C@H](NC(=O)OC(C)(C)C)C(=O)Oc1ccc(C=CC(O)=CC(=O)C=Cc2ccc(O)cc2)cc1` [Compound 83, (S)-4-(3-hydroxy-7-(4-hydroxyphenyl)-5-oxohepta-1,3,6-trienyl)phenyl 2-N-Boc-amino-3-methylbutanoate], for which the “ALP activity −matrix” value in the assay on C2C12 cells (setting [1]) is recorded as “+ (5-50%)”. In the assay on C2C12 cells (setting [2]), the “ALP activity +matrix” value is recorded as “− (<5%)”.

Consider `COc1cc(C=CC(=O)C2CCCC(=Cc3ccc(O)c(OC)c3)C2=O)ccc1O` (stereo not drawn) [Compound 58, 2-(4-Hydroxy-3-methoxybenzylidene)-6-(3-(4-hydroxy-3-methoxyphenyl)acryloyl)cyclohexanone], for which the activation at 0.5 µM in the assay on C2C12 cells (setting [1]) and with C2C12 cells (setting [2]) was 5 to 50% each time.

Consider `CN(C)c1ccc(C=CC(=O)C=C(O)C=Cc2ccc(N(C)C)cc2)cc1` [Compound 47, 1,7-Bis-(4-dimethylaminophenyl)-5-hydroxy-hepta-1,4,6-trien-3-one], for which the activation at 0.5 µM in the assay with C2C12 cells (setting [1]) is above 100%; in the assay with C2C12 cells (setting [2]) it was below 5%.

With `COc1cc(C=CC(=O)C2CCCC(=Cc3ccc(OC(=O)C(N)CCCCN)c(OC)c3)C2=O)ccc1OC(=O)C(N)CCCCN` (stereo not drawn) [Compound 80, 4-(3-(3-(4-(2,6-diaminohexanoyloxy)-3-methoxybenzylidene)-2-oxocyclohexyl)-3-oxoprop-1-enyl)-2-methoxyphenyl bis(2,6-diaminohexanoate)], the “ALP activity −matrix” value with C2C12 cells (setting [1]) was “− (<5%)”. Besides, in the assay with C2C12 cells (setting [2]), the “ALP activity +matrix” value was “+ (5-50%)”.

As to `COc1ccc(C(=O)N2c3ccc(F)cc3[C@H](Nc3ccc(F)cc3)C[C@@H]2C)cc1` (relative stereo) [Compound 25, cis-1-(p-methoxybenzoyl)-2-methyl-6-fluoro-N-(p-fluorophenyl)-1,2,3,4-tetrahydroquinolin-4-amine], the activation at 0.5 µM in the assay with C2C12 cells (setting [3]) and in the assay on C2C12 cells (setting [4]) was 5 to 50% each time.

For the molecule `O=C(C=Cc1ccc(O)cc1)C1CCCC(=Cc2ccc(O)cc2)C1=O` (stereo not drawn) [Compound 55, 2-(4-Hydroxybenzylidene)-6-(3-(4-hydroxyphenyl)acryloyl)-cyclohexanone], the activation at 0.5 µM with C2C12 cells (setting [1]) and in the assay with C2C12 cells (setting [2]) was 5 to 50% throughout.

Turning to `Cc1nc2c(-c3ccccc3)cnn2c(NCCC(C)C)c1C` [Compound 32, 3-phenyl-5,6-dimethyl-7-[N-(3-methylbutyl)amino]-pyrazolo[1,5-a]pyrimidine], the pEC50 in the assay on Wnt transcription (Homo sapiens, HEK-293T) is below 7.40. Further, the activation at 0.5 µM in the assay on C2C12 cells (setting [3]) and in the assay on C2C12 cells (setting [4]) was below 5% throughout.

Take `C[C@H]1C[C@H](Nc2ccc(F)cc2)c2cc(F)ccc2N1C(=O)c1ccccc1` (relative stereo) [Compound 24, trans-1-benzoyl-2-methyl-6-fluoro-N-(p-fluorophenyl)-1,2,3,4-tetrahydroquinolin-4-amine]: the activation at 0.5 µM with C2C12 cells (setting [3]) was 50 to 100%; in the assay on C2C12 cells (setting [4]) it was below 5%.

For the molecule `COc1ccc(F)cc1C=CC(=O)C=C(O)C=Cc1cc(F)ccc1OC` [Compound 53, 1,7-Bis-(5-fluoro-2-methoxyphenyl)-5-Hydroxy-hepta-1,4,6-trien-3-one], the activation at 0.5 µM with C2C12 cells (setting [1]) and in the assay with C2C12 cells (setting [2]) was below 5% in each case.

For the origin of these results see patent publication US11596716B2, “Compounds and matrices for use in bone growth and repair” (Human BioMolecular Research Institute, priority 2013, dated 2023).
